This passage reports melting point results from a melting point compilation (Tetko et al.; mined from patent text by program, amines drawn as free bases though some values may be those of a salt).

SMILES strings stand for the structures. A value given as a limit tells only on which side of the number the result lay.

As for `Nc1ccc(-c2cc(=O)c(C(=O)O)cn2-c2ccc(F)cc2)cc1`, the melting point lay within 262 to 266 °C. The result for `CCCCCN1CC[C@@H](c2ccccc2Br)[C@H](CO)C1` (racemic) reads 119 to 120 °C.

For the compound `O=C(Cc1ccc2c(c1)Cc1c-2[nH]c(=O)c2nccn12)NCc1ccccc1`, the melting point is over 260 °C.

In the case of `CCN(Cc1csc(C(C)C)n1)C(=O)N[C@H](C(=O)N[C@@H](Cc1ccccc1)C[C@H](O)[C@H](Cc1ccccc1)NC(=O)OCc1cncs1)C(C)C`, the melting point was 58 to 60 °C. In turn, `NC(=O)N(O)CCOc1ccc2c(c1)CCN(Cc1ccc(-c3ccc(F)cc3)cc1)C2=O` returned a melting point of 171 to 172 °C. With `CC1Cc2ccc(O)cc2C1(C)C` (stereo not given), the melting point was in the range of 66 to 67 °C.

On to `CC(=O)N[C@@H](CSC(C)=O)C(=O)NCCSC(C)=O`, for which the melting point was 153 to 154 °C. Turning to `CC(=O)N1CC(C)(C)c2cc3nc(-c4ccccc4)[nH]c3cc21`, the melting point lay in the range of 225 to 227 °C.

`Cc1cc(OCc2ccc(-c3ccccc3C(=O)O)cc2)c2ncccc2n1` displayed a melting point of 213 to 214 °C.

`CCn1c2ccc(C=NNc3ccccc3)cc2c2cc(C=NNc3ccccc3)ccc21`: the melting point is 119 to 120 °C.

Turning to `Cc1cc(CN(Cc2cccs2)c2sc(-c3ccc(C(F)(F)F)cc3)nc2C)ccc1OC(C)(C)C(=O)O`, the melting point was found to be 100 °C. As to `CC1(c2ccccc2NC(c2c(Cl)cccc2Cl)C2CC2)OCCO1` (stereo not given), the melting point stood at 151 °C. In turn, `Cc1c[nH]c2c1C(=O)CC(c1ccccc1Cl)C2` (stereo not given) came in with a melting point of 201 to 209 °C. The same measure for `COc1ccc(-n2nc(C(C)(C)C)cc2NC(=O)c2nccc3cc(Oc4cc(Cl)ncn4)ccc23)cc1`: 156 °C. In turn, `Nc1c(Cl)cc(C(=O)O)c2c1CCCO2` displayed a melting point of 226 °C. The same measure for `c1ccc(C(Sc2nnn[nH]2)c2ccccc2)cc1`: 132 to 134 °C; for `CS(=O)(=O)c1ccc(-c2cnn(Cc3ccccc3)c(=O)c2-c2ccc(Cl)cc2)cc1`: 157 to 159 °C. The same measure for `COC(=O)CCCc1cc2cc(Cl)ccc2n1S(=O)(=O)c1ccc(N)c([N+](=O)[O-])c1`: 157 °C; for `N#CC(C(=O)c1ccc(-c2nnn[nH]2)cc1)=C1CCCCN1`: over 220 °C; for `O=C1c2ccccc2C(c2c(O)c3ccccc3oc2=O)N1c1ccccc1` (stereo not given): 335 to 337 °C.

`CCCCCCOc1c(F)ccc(C(N)=O)c1F` came in with a melting point of 86 to 87 °C. `CCC(CC)C(NS(=O)(=O)c1ccc(Cl)s1)c1ncnn1Cc1ccc(OC)cc1` (stereo not given): the melting point lay within 136 to 137 °C. The same measure for `COc1cc(Cc2cnc(NC=O)nc2N)cc(OC)c1OC`: 240 to 242 °C; for `c1ccc2c(c1)CCn1cnnc1C2`: 191 °C. The same measure for `C[C@H]1C(=O)C2(CC2)C(=O)N1c1ccc(C#N)c(Cl)c1`: 169 to 172 °C; for `CCCCCCCCCCCCCCCCCC(=O)NC(=O)OCc1nc(C(C)C)c(Sc2cc(Cl)cc(Cl)c2)n1Cc1ccncc1`: 73 to 77 °C; for `Cc1nc(-c2ccc(Cl)cc2)sc1C(=O)N[C@H](C)[C@](O)(Cn1cncn1)c1ccc(F)cc1F`: 159 to 160 °C. `CCCC(c1ccc(C(=O)O)cc1)N(CCC)c1nc(-c2ccc(Cl)cc2Cl)c(C)s1` (stereo not given) came in with a melting point of 86 °C. In the case of `COc1ccc(Nc2cc(C)nc(SCC#N)n2)cc1`, the melting point was 128 to 131 °C. Regarding `COc1cc(CNC(=O)c2ccc3c(c2)c(=O)n(Cc2ccccc2)c(=O)n3C)ccc1O`, the melting point stood at 183 °C. `C=CCN1C(=O)CCc2cc(Sc3cccc([C@@]4(O)CCO[C@@H](C)C4)c3)ccc21` had a melting point of 107 to 109 °C.

`CC(=O)Nc1ccc(Oc2c(NCc3ccco3)cc(C(=O)O)cc2S(=O)(=O)NC(C)=O)cc1` registered a melting point of 250 °C. The same measure for `O=C(O)CCCC(=O)NCCCCCC1CCSS1` (stereo not given): 60 to 62 °C.

On to `CCOc1cc2ncc(C#N)c(Nc3ccc4cn[nH]c4c3)c2cc1OCC`, for which the melting point is 143 to 145 °C.

`COc1ccc2nccc(NC(=O)N3CCN(CC(O)c4cnc5ccccc5n4)CC3)c2n1` (stereo not given) came in with a melting point of 133 to 135 °C.

As for `CCCCC(C(=O)O)C1=C(c2ccccc2)c2ccccc2OC1` (stereo not given), the melting point was in the range of 117 to 119 °C.

Compound `CCOC(=O)CCc1oc(-n2ccnc2)nc1-c1ccc(Cl)cc1` displayed a melting point of 67 to 68 °C. Take `CCCCC/C(=C\C=C\C(=O)Oc1ccc([N+](=O)[O-])cc1)c1ccc(OC)cc1`: the melting point lay in the range of 46 to 47 °C. As for `O=C(O)C(=O)c1cn(Cc2ccc(F)cc2)c2ccc(OCCc3ccc(F)cc3)cc12`, the melting point lay within 171 to 173 °C. In the case of `CCCCOc1ccccc1C(O)CNC(C)Cc1ccc(OC)c(OC)c1` (stereo not given), the melting point lay within 119 to 121 °C. In the case of `O=C(CCC1CCCC1)Nc1cccc2ncccc12`, the melting point was 135 to 138 °C. `Cc1nc2c(c3c1[nH]c1cc(Cl)ccc13)C(=O)CC(C)(C)C2` displayed a melting point of 248 to 250 °C.

`O=C1C(c2cccn2Cc2ccccc2)=CC(=O)c2ncccc21` showed a melting point of 172 to 173 °C.

`CCOC(=O)c1c(CN(CC)CC)nc2sc3ccncc3c2c1-c1ccc(OC)c(OC)c1` had a melting point of 141 to 142 °C. The compound `CCc1noc(-c2cn(-c3cccc(OCCc4ccccc4)c3)cn2)n1` had a melting point of 124 to 125 °C.

With `CCOc1ccc2[nH]cc(/C(C#N)=C/c3cccnc3)c2c1`, the melting point was 196 °C. The compound `CNc1ccc(Cl)cc1C(O)c1ccccc1Cl` (stereo not given) yielded a melting point of 106 to 108 °C.

As to `COC(=O)C1Cc2c([nH]c3ccccc23)C(c2ccc(Cl)cc2Cl)N1C(=O)CCl` (stereo not given), the melting point was in the range of 106 to 109 °C.

As to `CCCc1c(-c2cc(=O)c3c(O)c(CCC)c(OCC4=COC(C)(C)O4)cc3o2)ccc(OC)c1O`, the melting point stood at 148 °C.

`Cc1ccc2c3c(c(=O)oc2c1)CN(Cc1ccccc1)CC3` had a melting point of 109 to 111 °C. `CN(Cc1ccc(NS(C)(=O)=O)cc1)C1CCN(c2ccc(NS(C)(=O)=O)cc2)CC1` displayed a melting point of 177 to 179 °C.

`O=C1NCC=NN1c1cc(Cl)c(Cc2ccc(C(O)c3ccc(Cl)nc3)cc2)c(Br)c1` (stereo not given) had a melting point of 167 to 169 °C. Take `CCN(C(=O)OC)C1=CC(=O)CC1`: the melting point lay within 68 to 68.5 °C. Regarding `CCCCc1oc2ccccc2c1-c1ncc(-c2ccc3cc(OCc4ccc(C(=O)O)cc4)ccc3c2)o1`, the melting point lay in the range of 251 to 254 °C. The result for `COC(=O)c1ccc(Cl)cc1NC(=O)CSc1ccc(O)cc1` reads 165 to 168 °C; that for `O=C(O)[C@H]1CC(=O)N(c2ccc(OCc3cccc(F)c3)cc2)C1`, 157 °C; that for `CCC(=O)Nc1ccc(CN2C(=O)[C@H]3CCC[C@H]3N(C(=O)CN3C(=O)c4ccccc4C3=O)c3ccccc32)cc1` (relative stereo), 286 °C. For `CC1(C)COC1(Cn1cncn1)c1ccc(F)cc1F` (stereo not given), the melting point fell in the range of 76 to 78 °C. Consider `CC1=C(C=O)COc2ccccc21`, for which the melting point lay within 68 to 70 °C.

`CCOC(=O)c1sccc1S(=O)(=O)NC(=O)Nc1nc(C)nc(OC)n1` came in with a melting point of 166 °C.
